We go through three compounds from PMC7613620, “Reaction hijacking of tyrosine tRNA synthetase as a whole-of-life-cycle antimalarial strategy” (Science (New York, N.Y.), 2022).

Like-named read-outs stand apart in the source and are kept apart here.

Holding throughout (type): cell-based, Plasmodium falciparum
Assay [1] concerns P. falciparum (3D7). The assay is described as follows: P. falciparum (3D7) culture growth inhibition, 72 h. Conditions: Plasmodium falciparum, read-out: Pf3D7 IC50(72h); P. falciparum 3D7, 72 h. The protocol:
(1 picture or pasted object on this page, not shown here)
(§1) 553 Sigma-Aldrich) for 48-72 h. For drug pulse assays, tightly synchronized parasites (1-1.5% parasitemia,
(§2) 554 0.2% final hematocrit) were added to the plates and incubated for 3 h. Drugs were removed and the
(§3) 555 parasitemia assessed in the trophozoite stage of the next cycle.
(§4) 557 Compounds were tested against a range of drug resistant field isolates and laboratory strains using a
(§5) 558 modified [3H]-hypoxanthine incorporation assay, as previously reported (46). Field isolates 7G8, Cam3.1,
(§6) 559 Dd2, K1, TM90C2B and NF54 were obtained from MR4 (www.beiresources.org).
(§7) 561 Mammalian cell culture experiments
(§8) 562 The HepG2 (Human hepatocyte carcinoma) cell line was procured from ATCC (American Type
(§9) 563 Culture Collection, Manassas, USA; HB-8065) and viability assessed using Cell Titer-GLO luminescent
(§10) 564 cell viability assay reagents (Promega, catalogue number: G7570) (47, 48). For the assay, 2000 cells/well
(§11) 565 were plated in 384-well plates 24 h prior to the experiment and incubated at 37°C in a CO2 incubator. The
(§12) 566 medium was removed and cells were treated with fresh medium containing either vehicle (0.5% DMSO)
(§13) 567 or serially diluted test compounds or doxorubicin (1.3 nM to 25 µM) in a final volume of 50 µl/well and
(§14) 568 further incubated for 72 h at 37°C in a CO2 incubator.
(§15) 569 were treated with 5 µl of 1% Triton X-100 (final assay conc. 0.1%). Following incubation, 25 µl of medium
(§16) 570 was discarded and 25 µl of Cell Titer-GLO reagent was added to each well and the plate was kept on a plate
(§17) 571 shaker for 15 min at 25°C with shaking at 300 rpm. Luminescence signals were measured in a Spectramax
(§18) 572 M5 reader (Molecular Devices).
(§19) 574 H1650 is a human lung cancer derived ATG7-null cell line (49) that can be used to assess effects on targets
(§20) 576 adenocarcinoma; bronchoalveolar carcinoma). Other cells lines used are: H460 (NCI-H460; human lung;
(§21) 577 carcinoma; large cell lung cancer; ATCC: HTB-177); and HCT116 (human colon; colorectal carcinoma;
578 ATCC: CCL-247; Lot : 5056139). Each of the cell lines was received from the American Type Culture
579 Collection (ATCC) and passaged twice before freezing. Cells were cultured in the presence or absence of
580 inhibitors and cell viability was assessed by comparing the ATP content in compound-treated wells with
581 that in DMSO-treated wells as previously described (11).
583 HeLa cells (human cervical adenocarcinoma; genome sequenced (Garvin Institute, Australia) and verified

Assay [2] concerns PfYRS knockdown line. Kind of assay: Growth inhibition of aptamer-regulatable PfYRS knockdown line (luciferase, 72 h). Conditions: for IC50: Plasmodium falciparum, read-out: IC50 against the PfYRS knockdown line (control compounds); for Fold change in IC50 (high aTc/ no aTc), PfYRS knockdown line (control compounds): high aTc 500 nM. The source says: 674 Generation and analysis of PfYRS knock-down transfectants
675 A conditional regulatable line for the cytosolic PfYRS (PF3D7_0807900) was generated by integrating the
676 gene regulatable system, TetR-DOZI-RNA aptamer module at the 3'-end of the target gene, in P. falciparum
677 parasites using CRISPR-Cas9 and homology-driven repair (55, 56). A line harbourbing an aptamer-
678 regulatable fluorescent protein (eYFP) integrated in the cg6 locus is used as the control (55). Transfection
679 into parasites was carried out by preloading RBCs with the donor vector as described previously (57).
680 Briefly, 50 μg of purified plasmid DNA was mixed with human RBCs and subjected to 8 square wave
681 electroporation pulses of 365 V for 1 ms each, separated by 0.1 s in a 0.2 cm cuvette. The plasmid DNA
682 preloaded cells were inoculated with NF54 expressing Cas9 and T7 RNA polymerase. […]
696 Stock solutions of ML901, DHA or borrelidin (Cayman Chemicals) were dispensed into 96-well U-bottom
697 BD Falcon™ plates and serially diluted in complete medium to yield final concentrations ranging from 20-
698 0.08 nM. Synchronous ring-stage YRScyt conditional knockdown line and the aptamer-regulatable control
699 line in varying aTc concentrations (high = 50 or 500 nM, low = 1 nM, and no aTc) were distributed into
700 the drug plate. Lowest drug treatment and a lethal dose of chloroquine (200 nM) served as reference
701 controls. Growth inhibition was analysed after 72 h using the Renilla-Glo(R) Luciferase Assay System (ref
702 no E2750 Promega) and the GloMax® Discover Multimode Microplate Reader (Promega), and IC50 values
703 were obtained from corrected dose-response curves using GraphPad Prism (version 8; GraphPad Software). […]
706 CRISPR/Cas9 was used to generate parasites encoding the S234C mutation in exon 2 of PfYRS, as shown
707 in Suppl Figure 6. Two guide RNAs (gRNA1: […] and gRNA2:
708 […]) were selected using Benchling (benchling.com), and cloned into the
709 pDC2-coCas9-gRNA plasmid essentially as described previously (58). A donor template of 645 bp,
710 encompassing the majority of the 708 bp exon 2, was synthesized (ThermoFisher) and cloned into the
711 AatII/EcoRI sites of both the pDC2-coCas9-gRNA1 and pDC2-coCas9-gRNA2 plasmids. In addition to
712 the TCC>TGC (S234C) mutation, additional silent shield mutations were introduced to prevent gRNA-
713 Cas9 complex binding, as shown in Suppl Figure 6. Ring-stage P. falciparum parasites (Dd2 strain) at 10%
714 parasitemia (150 µL of packed cells) were transfected with 50 µg of plasmid DNA using a BioRad Gene
715 Pulser II (310 V, 950 µF), and selected with 5 nM WR99210 (Jacobus Pharmaceuticals) for 8 days, after
716 which culture was continued without drug pressure until transfectants were obtained. Clones of the
717 PfYRSS234C mutant parasites were isolated by limiting dilution and verified by Sanger sequencing.
719 Protein translation assay
720 P. falciparum Cam 3.II_Rev (25) schizont- (43-48 h p.i.) infected RBCs were pre-incubated with inhibitor
Using a modification of a published procedure (14), the
722 cells were labelled with O-propargyl-puromycin (OPP; 4 µM) for 1 h, washed 3x (PBS +3% serum) and
(§22) 723 then fixed for 10 minutes (4% formaldehyde/0.02% glutaraldehyde in PBS). The click reaction was
(§23) 724 performed for 1 h in the presence of CuSO4 (0.1 mM), THPTA (0.5 mM) and sodium ascorbate (5 mM) to
(§24) 725 bring about azide-alkyne cycloaddition to Alexa Fluor 488 azide (0.1 µM). Flow cytometry was performed
(§25) 726 using the FITC and Cy™5.5 channels to detect the Alexa Fluor 488 and PI, respectively.
(§26) 729 Cam 3.II_Rev (25) trophozoite-infected RBCs (25-30 h p.i.) were incubated with inhibitor for 3 h at 10%
(§27) 730 hematocrit and 5% parasitemia. The RBC pellet was washed 3 x in PBS + cOmplete. Cells were centrifuged
(§28) 731 at 380 x g for 5 min and the pelleted cells lysed by resuspension in PBS + 0.05% saponin for 5 min on ice.

The test system of assay [3] is protein translation in P. falciparum (Cam3.II-rev) schizonts. Kind of assay: Protein translation assay (O-propargyl-puromycin incorporation). Conditions: Plasmodium falciparum, read-out: IC50 (Translation). Here is the method:
as §22, §23, §24, §25, §26, §27, §28

The test system of assay [4] is P. falciparum (Cam3.II-rev) schizont stage. Kind of assay: 3 h drug pulse viability assay. Conditions: Plasmodium falciparum, 3 h, read-out: IC50 (Viability). The protocol:
as §1, §2, §3, §4, §5, §6, §7, §8, §9, §10, §11, §12, §13, §14, §15, §16, §17, §18, §19, §20, §21
578 ATCC: CCL-247; Lot : 5056139). […]
580 inhibitors and cell viability was assessed by comparing the ATP content in compound-treated wells with […]

Consider `C[C@H]1[C@@H](O)O[C@@H]2O[C@@]3(C)CC[C@H]4[C@H](C)CC[C@@H]1[C@@]24OO3` [DHA, Dihydroartemisinin], for which the IC50 (usually the point on the concentration scale where inhibition reaches its midpoint) in assay [1] is 2.9 ± 0.2 nM; in assay [2] (high aTc (500 nM)) it was 1.1 ± 0.3 nM; in assay [2] (low aTc (1 nM)), 1.6 ± 0.5 nM; in assay [2] (no aTc), 1.2 ± 0.4 nM. The “Fold change in IC50 (high aTc/ no aTc), PfYRS knockdown line (control compounds)” value in assay [2] is “no change”.
On to `C[C@@H]1C[C@H](C)C[C@H](C)[C@@H](O)CC(=O)O[C@H]([C@@H]2CCC[C@H]2C(=O)O)C/C=C/C=C(/C#N)[C@H](O)[C@@H](C)C1` [borrelidin], for which the figures for the IC50 in assay [2] (high aTc (500 nM)), in assay [2] (low aTc (1 nM)) and in assay [2] (no aTc) were 0.07 nM, 0.07 ± 0.01 nM and 0.07 ± 0.01 nM, respectively. Also, in assay [2], the “Fold change in IC50 (high aTc/ no aTc), PfYRS knockdown line (control compounds)” value is “no change”.
As for `C[C@@H]1C[C@@H]([C@H](O)CC2CC(=O)NC(=O)C2)C(=O)[C@@H](C)C1` [cycloheximide], the IC50 in assay [3] came to 2000 nM; in assay [4], 3200 nM.
